Where two headings read alike, the source gives them in different places.

For one data set, the target named is T1, galectins.
T1 construct: Kd, all galectins; other: compared with lactose
To be noted: cited from earlier work.

In data set [1] the target is T2, Galectin-1 (Homo sapiens, UniProt P09382). The data set is described as follows: fluorescence anisotropy assay, compound as inhibitor of galectin / fluorescein tagged saccharide probe interaction. The format is binding. An excerpt: (§1) Anal. Biochem. 334: 36-47, (Sörme et al., 2004) and Monovalent interactions of Galectin-1 By Salomonsson, Emma; Larumbe, Amaia; Tejler, Johan; Tullberg, Erik; Rydberg, Hanna; Sundin, Anders; Khabut, Areej; Frejd, Torbjorn; Lobsanov, Yuri D.; Rini, James M.; et al, From Biochemistry (2010), 49(44), 9518-9532, (Salomonsson et al., 2010).

In a further data set the target is Galectin-3 (Homo sapiens, UniProt P17931). The description is as above. The format is binding.
From the text: as §1

The nature of data set [2]: CACO-2 model of uptake over the human intestine. The format is in vitro ADME. The settings on record: human, Caco-2. The text has this:
(§2) For some compounds of this invention wherein R^1 of formula 1 is an alkylated hydroxy, for example —OCH3 high uptake and no efflux is observed in a CACO-2 model of uptake ver the human intestine. That predicts high likeliness of high human oral bioavailability.

A further data set deals with CACO-2. Nature of the data set: CACO-2 model of uptake over the human intestine. The format is in vitro ADME. To be noted: result in words.
From the text: as §2

In data set [3] the target is T2, Galectin-1. The settings on record: T. Delaine 2016; read-out: affinity to Galectin-1; cited from earlier work.

Chain of Galectin-3 (P17931 whole entry): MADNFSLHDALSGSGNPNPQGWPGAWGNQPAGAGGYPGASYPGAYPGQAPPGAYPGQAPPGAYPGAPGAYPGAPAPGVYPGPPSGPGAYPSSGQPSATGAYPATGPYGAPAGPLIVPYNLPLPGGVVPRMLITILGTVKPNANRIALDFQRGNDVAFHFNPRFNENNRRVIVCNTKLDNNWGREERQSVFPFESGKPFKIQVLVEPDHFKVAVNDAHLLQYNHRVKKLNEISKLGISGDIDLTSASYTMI
T2 sequence (P09382 whole entry): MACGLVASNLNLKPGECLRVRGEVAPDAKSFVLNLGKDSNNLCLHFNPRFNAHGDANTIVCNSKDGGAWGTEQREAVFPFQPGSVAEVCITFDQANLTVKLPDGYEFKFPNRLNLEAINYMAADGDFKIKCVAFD

`OC[C@H]1O[C@@H](O[C@H]2[C@H](O)[C@@H](O)C(O)O[C@@H]2CO)[C@H](O)[C@@H](O)[C@H]1O` (stereo partly shown) [lactose]: at galectins (read-out: Kd, all galectins), the Kd was 100 to 1000 µM.

`O=C[C@H](O)[C@@H](O)[C@@H](O)[C@H](O)CO` [D-galactose]: in the data set on galectins (compared with lactose), the “affinity relative to lactose (times lower)” value is listed as 50-100 times.

For orientation: Papp A→B means the apparent permeability from the apical to the basolateral side of a cell layer. As usually defined, the Papp B→A is how fast a substance crosses the layer from the basolateral side. Turning to `CO[C@@H]1[C@@H](n2cc(-c3nccs3)nn2)[C@@H](O)[C@@H](CO)O[C@@H]1Sc1cc(Cl)c(F)c(Cl)c1` [Example 1, 3,5-Dichloro-4-fluorophenyl 3-deoxy-2-O-methyl-3-[4-(2-thiazolyl)-1H-1,2,3-triazol-1-yl]-1-thio-α-D-galactopyranoside], the Kd was 0.175 µM at Galectin-1 [1] (read-out: Galectin-1 Kd) and 8 µM on Galectin-3. In data set [2] (A>B, read-out: Papp from the apical to the basolateral side (A>B)), the Papp A→B amounted to 20 ×10⁻⁶ cm/s. Further, the Papp B→A in data set [2] (B>A, read-out: Papp from the basolateral to the apical side B>A) came to 28 ×10⁻⁶ cm/s. For the same molecule, the “uptake and efflux in CACO-2 model” value in the data set on CACO-2 is “the uptake is very high and virtually no efflux is observed”.

As to `COC1C(n2cc(-c3nc(Cl)cs3)nn2)[C@@H](O)C(CO)O[C@@H]1Sc1cc(Cl)cnc1C(=O)N1CCC1` (stereo partly drawn) [Example 45, 5-Chloro-2-(N-azetidinylcarbamoyl)-3-pyridinyl 3-[4-(4-chlorothiazol-2-yl)-1H-1,2,3-triazol-1-yl]-3-deoxy-2-O-methyl-1-thio-α-D-galactopyranoside], the Kd is 0.022 µM on Galectin-1 [1] and 0.074 µM at Galectin-3.

As for `N#Cc1ncc(Cl)cc1S[C@H]1O[C@H](CO)[C@H](O)[C@H](n2cc(-c3nccs3)nn2)[C@H]1OCc1ccccc1` [Example 5, 5-Chloro-2-cyanopyridin-3-yl 2-O-benzyl-3-deoxy-3-[4-(2-thiazolyl)-1H-1,2,3-triazol-1-yl]-1-thio-α-D-galactopyranoside], the Kd on Galectin-1 [1] was determined as 0.19 µM; at Galectin-3 it was 1.8 µM.

As for `N#Cc1ccc(Cl)cc1S[C@@H]1C[C@@H](n2cc(-c3nc(Cl)cs3)nn2)[C@@H](O)[C@@H](CO)O1` [Example 43, 5-Chloro-2-cyanophenyl 3-[4-(4-chlorothiazol-2-yl)-1H-1,2,3-triazol-1-yl]-2,3-dideoxy-1-thio-α-D-galactopyranoside], the figures for the Kd at Galectin-1 [1] and on Galectin-3 were 0.13 µM and 1.2 µM, respectively.

For `CO[C@@H]1[C@@H](n2cc(-c3csc(O)n3)nn2)[C@@H](O)[C@@H](CO)O[C@@H]1Sc1cc(Br)ccc1C#N` [Example 58, 5-Bromo-2-cyanophenyl 3-deoxy-3-[4-(2-hydroxythiazol-4-yl)-1H-1,2,3-triazol-1-yl]-2-O-methyl-1-thio-α-D-galactopyranoside], the Kd at Galectin-1 [1] was determined as 0.022 µM; on Galectin-3 it was 2 µM.

As for `CO[C@@H]1[C@@H](n2cc(-c3csc(N)n3)nn2)[C@@H](O)[C@@H](CO)O[C@@H]1Sc1cc(Cl)cnc1-c1ccccn1` [Example 26, 5-Chloro-2-(pyridin-2-yl)pyridin-3-yl 3-[4-(2-aminothiazol-4-yl)-1H-1,2,3-triazol-1-yl]-3-deoxy-2-O-methyl-1-thio-α-D-galactopyranoside], the Kd at Galectin-1 [1] was 0.017 µM; at Galectin-3 it was 1.7 µM.

`CO[C@@H]1[C@@H](n2cc(-c3nccs3)nn2)[C@@H](O)[C@@H](CO)O[C@@H]1Sc1cc(Cl)ccc1Cl` [Example 66, 2,5-Dichlorophenyl 3-deoxy-2-O-methyl-3-[4-(2-thiazolyl)-1H-1,2,3-triazol-1-yl]-1-thio-α-D-galactopyranoside]: the Kd turned out to be 0.22 µM at Galectin-1 [1] and 4.1 µM at Galectin-3.

Turning to `OCC1O[C@@H](SC2O[C@H](CO)C(O)C(n3cc(-c4ccsc4)nn3)[C@H]2O)C(O)C(n2cc(-c3ccsc3)nn2)[C@H]1O` (stereo partly shown), the Kd at Galectin-1 [3] was less than 0.01 µM.

On to `CO[C@@H]1[C@@H](n2cc(-c3nc(Cl)cs3)nn2)[C@@H](O)[C@@H](CO)O[C@@H]1Sc1cc(Cl)ccc1C#N` [Example 96, 5-Chloro-2-cyanophenyl 3-[4-(4-chlorothiazol-2-yl)-1H-1,2,3-triazol-1-yl]-3-deoxy-2-O-methyl-1-thio-α-D-galactopyranoside], for which the Kd at Galectin-1 [1] worked out at 0.022 µM; on Galectin-3 it was 0.21 µM.

Turning to `CO[C@@H]1[C@@H](n2cc(-c3csc(N)n3)nn2)[C@@H](O)[C@@H](CO)O[C@@H]1Sc1cc(Br)ccc1C#N` [Example 59, 5-Bromo-2-cyanophenyl 3-[4-(2-aminothiazol-4-yl)-1H-1,2,3-triazol-1-yl]-3-deoxy-2-O-methyl-1-thio-α-D-galactopyranoside], the Kd at Galectin-1 [1] worked out at 0.054 µM; at Galectin-3, 2.2 µM.

For the molecule `CO[C@@H]1[C@@H](n2cc(-c3nc(Cl)cs3)nn2)[C@@H](O)[C@@H](CO)O[C@@H]1Sc1cncc(C#N)c1` [Example 82, 5-Cyanopyridin-3-yl 3-[4-(4-chlorothiazol-2-yl)-1H-1,2,3-triazol-1-yl]-3-deoxy-2-O-methyl-1-thio-α-D-galactopyranoside], the Kd on Galectin-1 [1] came to 0.17 µM; on Galectin-3 it was 0.52 µM.

In the case of `CO[C@@H]1[C@@H](n2cc(-c3csc(N)n3)nn2)[C@@H](O)[C@@H](CO)O[C@@H]1Sc1cc(Cl)c(F)c(Cl)c1` [Example 16, 3,5-Dichloro-4-fluorophenyl 3-[4-(2-aminothiazol-4-yl)-1H-1,2,3-triazol-1-yl]-3-deoxy-2-O-methyl-1-thio-α-D-galactopyranoside], the Kd at Galectin-1 [1] (read-out: Galectin-1 Kd) is 0.069 µM; on Galectin-3, 8.4 µM.

The record behind these values is US12441754B2, “Galactoside inhibitor of galectins” (GALECTO BIOTECH AB, priority 2019, dated 2025).
